Tests used:
Experiment in all cases: KINOMEscan Max
Format in all cases: binding
[1] = biological target: T1, SIK2 (Homo sapiens, UniProt Q9H0K1)
T1 construct: DNA tag (qPCR read-out)
Method: (§1) Kinase panel profiling was performed at Ambit Kinomescan (http://www.ambitbio.com/technology/) using the “KINOMEscan™ Max” assay platform, a high-throughput method for screening small molecule compounds against large numbers of human kinases. KINOMEscan™ is based on a competition binding assay that quantitatively measures the ability of a compound to compete with an immobilized, active-site directed ligand. The assay is performed by combining three components: DNA-tagged kinase; immobilized ligand; and a test compound. The ability of the test compound to compete with the immobilized ligand is measured via quantitative PCR of the DNA tag. For a description of Ambit's assay protocol, see Fabian et al. A small molecule-kinase interaction map for clinical kinase inhibitors. Nat. Biotechnol. 23, 329-336 (2005).

[2] = biological target: NIM1 (Homo sapiens, UniProt Q8IY84)
Method: as §1

[3] = biological target: T2, BRSK2 (Homo sapiens, UniProt Q8IWQ3)
T2 construct: DNA tag (qPCR read-out)
Method: as §1

[4] = biological target: MLK3 (Homo sapiens, UniProt Q16584); details: 1 μM
Method: as §1

[5] = biological target: T3, ACVR2B (Homo sapiens, UniProt Q13705); details: 1 μM
T3 construct: DNA tag (qPCR label); purchased Ambit Kinomescan (contract screening)
Method: as §1

[6] = biological target: PIK3CA(E542K) (Homo sapiens, UniProt P42336, E542K)
Method: as §1

[7] = biological target: T4, MAP3K15 (Homo sapiens, UniProt Q6ZN16)
T4 construct: purchased Ambit Kinomescan (contract panel)
Method: as §1

[8] = biological target: NEK1 (Homo sapiens, UniProt Q96PY6)
Method: as §1

[9] = biological target: T5, TTK (Homo sapiens, UniProt P33981)
T5 construct: purchased Ambit Kinomescan (contract screening service)
Method: as §1

[10] = biological target: T6, BMPR1A (Homo sapiens, UniProt P36894)
T6 construct: DNA tag (qPCR label); purchased Ambit Kinomescan (contract screening)
Method: as §1

[11] = biological target: T7, CDK9 (Homo sapiens, UniProt P50750)
T7 construct: DNA tag (qPCR read-out)
Method: as §1

[12] = biological target: T8, RPS6KA5(Kin.Dom.2-C-terminal) (Homo sapiens, UniProt O75582)
T8 construct: RPS6KA5(Kin.Dom.2-C-terminal); DNA tag (qPCR read-out)
Method: as §1

[13] = biological target: T9, PLK3 (Homo sapiens, UniProt Q9H4B4)
T9 construct: purchased Ambit (KINOMEscan Max service)
Method: as §1

[14] = biological target: FLT4 (Homo sapiens, UniProt P35916)
Method: as §1

[15] = biological target: T10, PRKX (Homo sapiens, UniProt P51817)
T10 construct: DNA tag (qPCR read-out)
Method: as §1

[16] = biological target: T11, PIK3C2G (Homo sapiens, UniProt O75747)
T11 construct: DNA tag (qPCR read-out)
Method: as §1

[17] = biological target: T12, MST4 (Homo sapiens, UniProt Q9P289)
T12 construct: DNA tag (qPCR read-out)
Method: as §1

[18] = biological target: PAK6 (Homo sapiens, UniProt Q9NQU5)
Method: as §1

[19] = biological target: MEK6 (Homo sapiens, UniProt P52564)
Method: as §1

[20] = biological target: T13, CSK (Homo sapiens, UniProt P41240); details: 1 μM
T13 construct: purchased Ambit (KINOMEscan Max panel service)
Method: as §1

[21] = biological target: T14, PIK3CA(H1047Y) (Homo sapiens, UniProt P42336, H1047Y)
T14 construct: DNA tag (qPCR read-out)
Method: as §1

[22] = biological target: T15, ERN1 (Homo sapiens, UniProt O75460)
T15 construct: DNA tag (qPCR read-out)
Method: as §1

[23] = biological target: p38-beta (Homo sapiens, UniProt Q15759)
Method: as §1

[24] = biological target: T16, JAK3(JH1domain-catalytic) (Homo sapiens, UniProt P52333)
T16 construct: JAK3(JH1domain-catalytic); purchased Ambit Kinomescan (contract panel)
Method: as §1

[25] = biological target: T17, FLT3(D835H) (Homo sapiens, UniProt P36888, D835H)
T17 construct: purchased Ambit (KINOMEscan Max service)
Method: as §1

[26] = biological target: T18, CAMK4 (Homo sapiens, UniProt Q16566)
T18 construct: DNA tag (qPCR label); purchased Ambit Kinomescan (contract screening)
Method: as §1

[27] = biological target: T19, EGFR(L747-T751del.Sins) (Homo sapiens, UniProt P00533, DEL747-750/T751S); details: 1 μM
T19 construct: purchased Ambit (KINOMEscan Max panel service)
Method: as §1

[28] = biological target: T20, ULK2 (Homo sapiens, UniProt Q8IYT8)
T20 construct: purchased Ambit (KINOMEscan Max service)
Method: as §1

[29] = biological target: ABL1(T315I)-nonphosphorylated (Homo sapiens, UniProt P00519, T315I)
Method: as §1

[30] = biological target: T21, EGFR(G719C) (Homo sapiens, UniProt P00533, G719C); details: 1 μM
T21 construct: purchased Ambit (KINOMEscan Max panel service)
Method: as §1

[31] = biological target: T22, CSNK1G1 (Homo sapiens, UniProt Q9HCP0); details: 1 μM
T22 construct: purchased Ambit (KINOMEscan Max panel service)
Method: as §1

[32] = biological target: T23, PIK4CB (Homo sapiens, UniProt Q9UBF8)
T23 construct: DNA tag (qPCR read-out)
Method: as §1

[33] = biological target: T24, CDK2 (Homo sapiens, UniProt P24941); details: 1 μM
T24 construct: purchased Ambit (KINOMEscan Max service)
Method: as §1

[34] = biological target: T25, LYN (Homo sapiens, UniProt P07948)
T25 construct: purchased Ambit Kinomescan (contract panel)
Method: as §1

T15 sequence (O75460 19-977): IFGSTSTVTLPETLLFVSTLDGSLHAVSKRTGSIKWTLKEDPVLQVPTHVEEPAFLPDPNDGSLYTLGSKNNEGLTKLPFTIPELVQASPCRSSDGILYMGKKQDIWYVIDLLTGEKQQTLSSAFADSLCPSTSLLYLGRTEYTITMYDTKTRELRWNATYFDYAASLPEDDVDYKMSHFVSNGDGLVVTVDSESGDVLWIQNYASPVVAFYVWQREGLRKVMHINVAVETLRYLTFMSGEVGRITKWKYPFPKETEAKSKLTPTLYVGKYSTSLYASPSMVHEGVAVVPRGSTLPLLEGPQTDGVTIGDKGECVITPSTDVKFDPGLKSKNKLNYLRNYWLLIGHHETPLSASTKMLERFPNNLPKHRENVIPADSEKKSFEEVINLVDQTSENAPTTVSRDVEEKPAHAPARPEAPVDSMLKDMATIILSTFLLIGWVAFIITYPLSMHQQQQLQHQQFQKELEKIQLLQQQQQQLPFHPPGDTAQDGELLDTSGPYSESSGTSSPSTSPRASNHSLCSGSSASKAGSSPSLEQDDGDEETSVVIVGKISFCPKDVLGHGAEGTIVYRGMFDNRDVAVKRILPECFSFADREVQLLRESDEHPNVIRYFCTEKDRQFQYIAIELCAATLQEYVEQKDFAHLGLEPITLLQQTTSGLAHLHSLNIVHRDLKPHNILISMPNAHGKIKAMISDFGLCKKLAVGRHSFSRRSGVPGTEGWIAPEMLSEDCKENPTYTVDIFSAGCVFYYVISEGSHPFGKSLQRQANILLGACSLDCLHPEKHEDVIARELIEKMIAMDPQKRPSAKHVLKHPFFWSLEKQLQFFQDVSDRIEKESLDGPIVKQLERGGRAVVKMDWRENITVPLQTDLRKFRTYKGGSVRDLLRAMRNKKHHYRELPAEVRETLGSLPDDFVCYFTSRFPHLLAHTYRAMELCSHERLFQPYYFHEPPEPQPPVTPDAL
T11 sequence (O75747 whole entry): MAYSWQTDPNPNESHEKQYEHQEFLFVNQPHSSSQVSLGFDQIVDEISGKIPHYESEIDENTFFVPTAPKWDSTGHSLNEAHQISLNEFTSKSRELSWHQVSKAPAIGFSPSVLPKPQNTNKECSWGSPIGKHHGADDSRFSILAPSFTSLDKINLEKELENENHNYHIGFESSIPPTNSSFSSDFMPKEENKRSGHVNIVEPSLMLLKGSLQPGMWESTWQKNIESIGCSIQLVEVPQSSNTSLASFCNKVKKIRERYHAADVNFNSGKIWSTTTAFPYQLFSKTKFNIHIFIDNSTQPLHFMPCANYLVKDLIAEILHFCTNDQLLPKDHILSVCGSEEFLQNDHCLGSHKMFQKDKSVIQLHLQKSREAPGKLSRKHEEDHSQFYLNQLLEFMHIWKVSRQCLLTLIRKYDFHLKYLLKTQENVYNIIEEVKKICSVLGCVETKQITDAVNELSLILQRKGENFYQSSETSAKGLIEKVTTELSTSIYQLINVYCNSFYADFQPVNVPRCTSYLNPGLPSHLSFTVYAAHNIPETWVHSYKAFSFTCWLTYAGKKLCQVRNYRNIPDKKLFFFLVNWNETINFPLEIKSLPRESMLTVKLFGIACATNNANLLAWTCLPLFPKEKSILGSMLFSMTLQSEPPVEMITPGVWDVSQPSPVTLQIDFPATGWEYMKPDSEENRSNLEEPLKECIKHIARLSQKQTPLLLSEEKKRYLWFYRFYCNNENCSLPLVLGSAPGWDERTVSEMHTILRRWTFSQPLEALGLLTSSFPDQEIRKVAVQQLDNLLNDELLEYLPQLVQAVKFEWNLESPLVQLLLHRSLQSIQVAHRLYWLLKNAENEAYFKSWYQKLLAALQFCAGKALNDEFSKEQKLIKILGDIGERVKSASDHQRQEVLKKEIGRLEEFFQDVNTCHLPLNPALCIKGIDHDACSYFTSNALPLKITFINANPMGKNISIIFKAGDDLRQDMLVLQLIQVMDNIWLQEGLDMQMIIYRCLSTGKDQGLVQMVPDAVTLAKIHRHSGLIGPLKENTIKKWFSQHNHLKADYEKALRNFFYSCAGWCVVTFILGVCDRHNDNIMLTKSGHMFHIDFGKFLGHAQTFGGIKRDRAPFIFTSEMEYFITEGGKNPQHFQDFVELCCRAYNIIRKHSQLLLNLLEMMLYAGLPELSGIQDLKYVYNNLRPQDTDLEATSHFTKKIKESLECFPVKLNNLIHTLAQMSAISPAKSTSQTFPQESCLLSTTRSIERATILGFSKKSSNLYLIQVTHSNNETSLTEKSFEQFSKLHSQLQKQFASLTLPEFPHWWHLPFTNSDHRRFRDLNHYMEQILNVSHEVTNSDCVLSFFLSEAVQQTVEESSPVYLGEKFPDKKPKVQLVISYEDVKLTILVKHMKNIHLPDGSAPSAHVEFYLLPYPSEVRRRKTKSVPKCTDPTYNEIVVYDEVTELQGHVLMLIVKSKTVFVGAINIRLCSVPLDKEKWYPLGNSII
T13 sequence (P41240 whole entry): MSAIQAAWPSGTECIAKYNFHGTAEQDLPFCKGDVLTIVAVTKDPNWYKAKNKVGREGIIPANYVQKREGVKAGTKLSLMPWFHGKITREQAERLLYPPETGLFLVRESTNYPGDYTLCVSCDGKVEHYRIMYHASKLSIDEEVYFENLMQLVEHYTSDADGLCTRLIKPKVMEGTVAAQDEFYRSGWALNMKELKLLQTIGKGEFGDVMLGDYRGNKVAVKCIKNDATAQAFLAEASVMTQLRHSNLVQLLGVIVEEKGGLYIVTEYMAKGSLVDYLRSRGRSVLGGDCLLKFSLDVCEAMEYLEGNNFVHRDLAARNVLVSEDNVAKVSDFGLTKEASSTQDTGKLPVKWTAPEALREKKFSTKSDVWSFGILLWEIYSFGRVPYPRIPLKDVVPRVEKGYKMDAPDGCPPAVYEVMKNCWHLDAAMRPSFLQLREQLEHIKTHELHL
T1 sequence (Q9H0K1 whole entry): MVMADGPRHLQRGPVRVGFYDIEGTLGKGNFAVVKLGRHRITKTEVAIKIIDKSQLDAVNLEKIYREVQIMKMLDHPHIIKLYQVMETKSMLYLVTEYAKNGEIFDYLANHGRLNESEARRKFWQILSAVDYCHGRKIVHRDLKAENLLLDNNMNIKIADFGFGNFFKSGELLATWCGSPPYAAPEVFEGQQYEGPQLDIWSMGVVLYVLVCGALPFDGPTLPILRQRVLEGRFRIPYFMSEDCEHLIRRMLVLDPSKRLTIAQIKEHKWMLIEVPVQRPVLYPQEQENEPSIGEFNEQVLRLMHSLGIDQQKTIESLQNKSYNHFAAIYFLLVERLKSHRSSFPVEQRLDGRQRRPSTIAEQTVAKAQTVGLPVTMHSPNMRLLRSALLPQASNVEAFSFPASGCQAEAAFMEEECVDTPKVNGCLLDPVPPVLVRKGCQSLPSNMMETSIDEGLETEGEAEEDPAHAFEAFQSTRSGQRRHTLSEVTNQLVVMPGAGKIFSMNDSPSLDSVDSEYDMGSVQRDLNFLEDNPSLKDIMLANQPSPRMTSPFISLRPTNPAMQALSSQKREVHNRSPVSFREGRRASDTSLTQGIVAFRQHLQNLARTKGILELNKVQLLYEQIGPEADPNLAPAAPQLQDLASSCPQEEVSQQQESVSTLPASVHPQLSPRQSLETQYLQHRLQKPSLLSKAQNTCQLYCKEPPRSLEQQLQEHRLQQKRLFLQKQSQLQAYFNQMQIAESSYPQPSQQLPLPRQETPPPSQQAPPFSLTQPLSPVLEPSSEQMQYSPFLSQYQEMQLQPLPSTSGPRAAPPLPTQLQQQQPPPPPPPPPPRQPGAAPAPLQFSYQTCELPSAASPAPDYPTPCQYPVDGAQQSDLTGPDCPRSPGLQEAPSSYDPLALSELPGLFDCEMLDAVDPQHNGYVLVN
T12 sequence (Q9P289 whole entry): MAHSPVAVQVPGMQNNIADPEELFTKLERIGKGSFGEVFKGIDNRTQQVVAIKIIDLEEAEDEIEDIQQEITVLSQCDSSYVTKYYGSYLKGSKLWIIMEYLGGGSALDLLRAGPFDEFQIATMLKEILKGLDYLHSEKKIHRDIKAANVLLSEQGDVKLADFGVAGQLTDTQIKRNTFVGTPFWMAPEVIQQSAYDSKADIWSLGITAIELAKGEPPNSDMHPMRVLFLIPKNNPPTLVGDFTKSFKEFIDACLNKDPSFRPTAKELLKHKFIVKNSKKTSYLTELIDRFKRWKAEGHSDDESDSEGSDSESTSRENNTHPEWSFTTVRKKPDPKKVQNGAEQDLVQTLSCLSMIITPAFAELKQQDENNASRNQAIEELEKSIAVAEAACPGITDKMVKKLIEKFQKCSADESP
T18 sequence (Q16566 whole entry): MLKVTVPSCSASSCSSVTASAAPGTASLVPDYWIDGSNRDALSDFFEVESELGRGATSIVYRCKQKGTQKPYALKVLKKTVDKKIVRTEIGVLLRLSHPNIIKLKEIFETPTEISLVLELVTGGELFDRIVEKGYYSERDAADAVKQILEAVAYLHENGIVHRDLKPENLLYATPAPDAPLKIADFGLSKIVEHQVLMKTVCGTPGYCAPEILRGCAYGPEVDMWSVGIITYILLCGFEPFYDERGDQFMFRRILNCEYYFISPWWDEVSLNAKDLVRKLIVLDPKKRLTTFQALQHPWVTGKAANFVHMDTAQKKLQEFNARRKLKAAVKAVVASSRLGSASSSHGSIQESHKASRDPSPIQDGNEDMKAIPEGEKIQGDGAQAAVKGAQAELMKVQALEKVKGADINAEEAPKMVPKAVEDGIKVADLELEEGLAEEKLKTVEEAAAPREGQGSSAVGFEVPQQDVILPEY
T16 sequence (P52333 822-1111 limits assumed): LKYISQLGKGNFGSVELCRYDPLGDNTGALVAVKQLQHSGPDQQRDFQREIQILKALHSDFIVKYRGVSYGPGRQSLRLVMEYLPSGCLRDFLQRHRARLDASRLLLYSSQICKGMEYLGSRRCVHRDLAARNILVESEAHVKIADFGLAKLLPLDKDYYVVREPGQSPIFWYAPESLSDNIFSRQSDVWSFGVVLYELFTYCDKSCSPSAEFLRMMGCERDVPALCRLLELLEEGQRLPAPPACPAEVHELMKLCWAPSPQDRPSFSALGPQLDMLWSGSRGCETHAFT

For NCCCNc1nc2c(Br)c(Br)c(Br)c(Br)c2[nH]1 [Compound 11, N-(3-aminopropyl)-4,5,6,7-tetrabromo-1H-benzo[d]imidazol-2-amine], the remaining binding at 1 µM [1] was 100%, the remaining binding at 1 µM [2] was 99% and the remaining binding at 1 µM [3] was 91%. The “% binding” value [4] was 95%, the “% binding” value [5] was 100% and the remaining binding at 1 µM [6] was 98%. The remaining binding at 1 µM [7] was 100%, the remaining binding at 1 µM [8] was 100% and the remaining binding at 1 µM [9] was 100%. For the same compound, the remaining binding at 1 µM [10] was 100%, the remaining binding at 1 µM [11] was 90% and the remaining binding at 1 µM [12] was 100%. The remaining binding at 1 µM [13] was 67%, the remaining binding at 1 µM [14] was 94% and the remaining binding at 1 µM [15] was 100%. For the same compound, the remaining binding at 1 µM [16] was 100%, the remaining binding at 1 µM [17] was 87% and the remaining binding at 1 µM [18] was 99%. The remaining binding at 1 µM [19] was 100%, the “% binding” value [20] was 100% and the remaining binding at 1 µM [21] was 100%. It also gave a remaining binding at 1 µM [22] of 91%, a remaining binding at 1 µM [23] of 95% and a remaining binding at 1 µM [24] of 100%. For the same compound, the remaining binding at 1 µM [25] was 58%, the remaining binding at 1 µM [26] was 100% and the “% binding” value [27] was 100%. For the same compound, the remaining binding at 1 µM [28] was 60%, the remaining binding at 1 µM [29] was 100% and the “% binding” value [30] was 100%. The “% binding” value [31] was 100%, the remaining binding at 1 µM [32] was 100% and the “% binding” value [33] was 71%. For the same compound, the remaining binding at 1 µM [34] was 100%.
